Test results from ChEMBL document CHEMBL1158250, “(all trans)-2,4,6,8,10,12-tetradecahexene-1,14-dial, a new pigment from Conidiobolus paulus” (J Nat Prod, 1996).

Legend:
[1] = Toxicity in chick embryo up to 100 ug; design: species or system Gallus gallus; conditions: chicken
[2] = tested on: Escherichia coli; experiment: Antibacterial activity against Escherichia coli B-3704 after 24 hrs by antibiotic disk assay; format: functional
[3] = tested on: Bacillus cereus; experiment: Antibacterial activity against Bacillus cereus B-3705 after 24 hrs by antibiotic disk assay; format: functional

- MIC [2]: 50 µg
- MIC [3]: 10 µg
SMILES: O=C/C=C/C=C/C=C/C=C/C=C/C=C/C=O
- Activity [1]: Non-toxic
